In patent publication US9255094B2, “Pyrido[4,3-B]indoles and methods of use” (Medivation Technologies, Inc., priority 2009, dated 2016):

Legend:
[1] = biological target: T1, rat adrenergic α1A receptor (Rattus norvegicus, UniProt P43140); experiment: Adrenergic α1A radioligand binding assay ([3H]Prozosin); conditions: compound at 0.1 μM; 0.25 nM [3H]Prozosin; Wistar Rat submaxillary glands; read-out: Percent Inhibition of ligand binding, Adrenergic (0.1 μM) a1A
T1 construct: from tissue; host or cells: Wistar Rat submaxillary glands
T1 sequence (P43140 1-466): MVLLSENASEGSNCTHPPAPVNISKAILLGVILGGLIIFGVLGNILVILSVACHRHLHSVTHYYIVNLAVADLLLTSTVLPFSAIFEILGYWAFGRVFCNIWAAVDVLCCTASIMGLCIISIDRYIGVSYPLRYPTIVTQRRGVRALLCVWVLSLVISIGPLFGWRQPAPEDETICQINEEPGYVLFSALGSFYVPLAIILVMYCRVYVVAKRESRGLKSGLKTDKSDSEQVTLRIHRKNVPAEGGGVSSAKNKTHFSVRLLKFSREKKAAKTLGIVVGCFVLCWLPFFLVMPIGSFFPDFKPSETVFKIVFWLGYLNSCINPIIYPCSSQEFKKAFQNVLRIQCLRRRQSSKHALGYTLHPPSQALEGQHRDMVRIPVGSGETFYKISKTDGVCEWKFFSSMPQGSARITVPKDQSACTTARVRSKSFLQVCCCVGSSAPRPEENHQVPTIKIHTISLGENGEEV
Protocol: To evaluate in radioligand binding assays the activity of compounds of the invention, rat adrenergic α1A receptor obtained from Wistar Rat submaxillary glands (Michel, A. D. et al., Br. J. Pharmacol. 98:883, 1989) in a modified Tris-HCl buffer (50 mM Tris-HCl buffer, pH 7.4, 0.5 mM EDTA) is used. Compounds of the invention are incubated with 0.25 nM [^3H]Prozosin for 60 min at 25° C. Non-specific binding is estimated in the presence of 10 μM phentolamine. Receptor proteins are filtered and washed, the filters are then counted to determine [^3H]Prozosin specifically bound. Compounds of the invention are screened at 1 μM or lower, using 1% DMSO as vehicle. Compounds of the invention are tested in this biochemical assay and percent inhibition of specific binding is determined.

[2] = biological target: T2, human recombinant serotonin (5-Hydroxytryptamine) 5-HT2A receptor (Homo sapiens, UniProt P28223); experiment: Serotonin 5-HT2A radioligand binding assay ([3H]Ketanserin); conditions: 0.5 nM [3H]Ketanserin, CHO-K1 cells; for inhibition at 1 µM: compound at 1 μM, read-out: Percent Inhibition of ligand binding, Serotonin (1 μM) 5-HT2A; for inhibition at 0.1 µM: compound at 0.1 μM, read-out: Percent Inhibition of ligand binding, Serotonin (0.1 μM) 5-HT2A
T2 construct: expressed in transfected cells; host or cells: Chinese hamster ovary (CHO-K1) cells
Protocol: Compounds of the invention were incubated with 0.5 nM [^3H]Ketanserin for 60 min at 25° C. Non-specific binding was estimated in the presence of 1 μM Mianserin. Receptor proteins were filtered and washed, the filters were then counted to determine [^3H]Ketanserin specifically bound. Compounds were screened at 1 μM or lower, using 1% DMSO as vehicle. Biochemical assay results are presented as the percent inhibition of specific binding in Table 4.

[3] = biological target: human recombinant histamine H1 receptor (Homo sapiens, UniProt P35367); experiment: Histamine H1 radioligand binding assay ([3H]Pyrilamine); conditions: receptor expressed in CHO cells; for inhibition at 0.1 µM: compound at 0.1 μM; for inhibition at 1 µM: compound at 1 μM
Method in brief: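 Membranes from CHO cells expressing the receptor, in 50 mM Tris-HCl pH 7.4 with 2 mM MgCl2, 100 mM NaCl and 250 mM sucrose, incubated with 1.2 nM [3H]pyrilamine for 180 min at 25° C; nonspecific binding defined with 1 μM pyrilamine.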

[4] = biological target: human recombinant dopamine D2L receptor (Homo sapiens, UniProt P14416); experiment: Dopamine D2L radioligand binding assay ([3H]Spiperone); conditions: compound at 1 μM, 0.16 nM [3H]Spiperone, CHO cells, read-out: Percent Inhibition of ligand binding, Dopamine (1μM)
Method in brief: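 Test compounds at 1 μM or lower (1% DMSO vehicle) incubated with 0.16 nM [3H]Spiperone for 120 min at 25 °C; nonspecific binding defined with 10 μM haloperidol. Filtration and counting of bound radioligand; values given as percent inhibition of specific binding.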

[5] = biological target: T3, human recombinant adrenergic α1D receptor (Homo sapiens, UniProt P25100); experiment: Adrenergic α1D radioligand binding assay ([3H]Prozosin); conditions: compound at 0.1 μM; 0.6 nM [3H]Prozosin; HEK-293 cells; read-out: Percent Inhibition of ligand binding, Adrenergic (0.1 μM) a1D
T3 construct: expressed in transfected cells; host or cells: human embryonic kidney (HEK-293) cells
T3 sequence (P25100 1-572): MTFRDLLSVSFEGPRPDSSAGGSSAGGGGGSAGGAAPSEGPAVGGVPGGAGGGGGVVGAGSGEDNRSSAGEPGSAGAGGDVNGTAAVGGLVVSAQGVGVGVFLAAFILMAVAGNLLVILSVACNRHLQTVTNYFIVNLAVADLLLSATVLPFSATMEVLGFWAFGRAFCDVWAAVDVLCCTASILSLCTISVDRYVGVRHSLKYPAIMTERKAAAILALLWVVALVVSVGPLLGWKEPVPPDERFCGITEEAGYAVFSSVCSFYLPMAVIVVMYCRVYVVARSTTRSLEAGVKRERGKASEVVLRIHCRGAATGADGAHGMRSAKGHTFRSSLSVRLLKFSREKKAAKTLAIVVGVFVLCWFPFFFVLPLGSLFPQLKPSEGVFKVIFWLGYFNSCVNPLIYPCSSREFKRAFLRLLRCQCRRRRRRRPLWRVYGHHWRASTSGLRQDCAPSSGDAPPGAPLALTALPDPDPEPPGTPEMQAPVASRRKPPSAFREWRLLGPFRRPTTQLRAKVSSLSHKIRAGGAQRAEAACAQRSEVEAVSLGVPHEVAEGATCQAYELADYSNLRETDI
Protocol: Compounds of invention were incubated with 0.6 nM [^3H]Prozosin for 60 min at 25° C. Non-specific binding was estimated in the presence of 10 μM phentolamine Receptor proteins were filtered and washed, the filters were then counted to determine [^3H]Prozosin specifically bound.

human recombinant dopamine D2L receptor, sequence (P14416 whole entry): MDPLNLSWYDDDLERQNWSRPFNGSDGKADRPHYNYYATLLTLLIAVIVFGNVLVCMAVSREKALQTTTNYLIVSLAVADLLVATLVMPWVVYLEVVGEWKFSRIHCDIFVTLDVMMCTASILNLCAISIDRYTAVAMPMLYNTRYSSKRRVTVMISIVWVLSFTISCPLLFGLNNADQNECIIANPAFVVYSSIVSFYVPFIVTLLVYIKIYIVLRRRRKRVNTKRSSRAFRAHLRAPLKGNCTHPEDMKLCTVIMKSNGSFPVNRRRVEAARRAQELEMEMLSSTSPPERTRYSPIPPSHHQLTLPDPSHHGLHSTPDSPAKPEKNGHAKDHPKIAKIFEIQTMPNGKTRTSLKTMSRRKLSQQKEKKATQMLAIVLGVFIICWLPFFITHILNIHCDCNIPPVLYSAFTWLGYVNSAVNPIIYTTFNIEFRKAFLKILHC
human recombinant histamine H1 receptor, sequence (P35367 whole entry): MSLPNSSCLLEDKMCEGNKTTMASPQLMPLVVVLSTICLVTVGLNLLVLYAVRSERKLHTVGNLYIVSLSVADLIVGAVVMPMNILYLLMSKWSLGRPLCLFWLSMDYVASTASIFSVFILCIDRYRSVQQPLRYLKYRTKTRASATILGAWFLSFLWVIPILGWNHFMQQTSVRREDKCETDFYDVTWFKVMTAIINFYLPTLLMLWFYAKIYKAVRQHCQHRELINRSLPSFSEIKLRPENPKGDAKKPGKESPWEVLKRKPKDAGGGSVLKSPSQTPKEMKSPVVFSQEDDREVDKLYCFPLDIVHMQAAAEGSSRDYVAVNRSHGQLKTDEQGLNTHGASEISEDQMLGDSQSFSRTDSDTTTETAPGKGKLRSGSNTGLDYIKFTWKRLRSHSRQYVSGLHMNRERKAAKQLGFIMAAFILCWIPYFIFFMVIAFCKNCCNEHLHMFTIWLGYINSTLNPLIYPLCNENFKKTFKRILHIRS
T2 sequence (P28223 whole entry): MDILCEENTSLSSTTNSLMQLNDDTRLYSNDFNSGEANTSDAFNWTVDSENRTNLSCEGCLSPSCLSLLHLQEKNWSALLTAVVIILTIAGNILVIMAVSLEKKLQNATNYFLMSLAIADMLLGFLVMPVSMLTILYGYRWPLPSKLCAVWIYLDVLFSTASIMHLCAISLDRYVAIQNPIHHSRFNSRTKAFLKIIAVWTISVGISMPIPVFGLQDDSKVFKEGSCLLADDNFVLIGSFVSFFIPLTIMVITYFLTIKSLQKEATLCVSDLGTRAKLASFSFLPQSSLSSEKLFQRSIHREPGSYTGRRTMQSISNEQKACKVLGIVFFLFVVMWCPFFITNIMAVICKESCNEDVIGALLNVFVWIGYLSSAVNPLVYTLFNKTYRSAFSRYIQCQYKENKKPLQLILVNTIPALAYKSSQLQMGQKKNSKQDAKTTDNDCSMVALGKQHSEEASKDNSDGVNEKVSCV

Row | Compound | inhibition at 0.1 µM [1] [%] | inhibition at 1 µM [2] [%] | inhibition at 0.1 µM [2] [%] | inhibition at 0.1 µM [3] [%] | inhibition at 1 µM [4] [%] | inhibition at 0.1 µM [5] [%] | inhibition at 1 µM [3] [%]
1 | CN1CCc2c(c3cc(Cl)c(Cl)cc3n2CC(C)(O)c2ccncc2)C1 (stereo not shown) [Compound 1-17, 1-(7,8-dichloro-2-methyl-3,4-dihydro-1H-pyrido[4,3-b]indol-5(2H)-yl)-2-(pyridin-4-yl)propan-2-ol] | 0 | 96 |  |  |  |  | 
2 | CN1CCc2c(c3cc(Cl)ccc3n2CC(O)c2ccncc2)C1 (stereo not shown) [Compound 1-11, 2-(8-chloro-2-methyl-3,4-dihydro-1H-pyrido[4,3-b]indol-5(2H)-yl)-1-(pyridin-4-yl)ethanol] | 12 | 82 |  |  |  |  | 
3 | CC[C@](O)(Cn1c2c(c3cc(C)ccc31)CN(C)CC2)c1ccncc1 [Compound 1-63, (R)-1-(2,8-Dimethyl-3,4-dihydro-1H-pyrido[4,3-b]indol-5(2H)-yl)-2-(pyridine-4-yl)butan-2-ol] | 8 |  | 21 | 18 | 14 | -13 | 
4 | CC[C@](O)(Cn1c2c(c3cc(C)ccc31)CN(C)CC2)c1ccc(F)cc1 [Compound 1-60, (R)-1-(2,8-Dimethyl-3,4-dihydro-1H-pyrido[4,3-b]indol-5(2H)-yl)-2-(4-fluorophenyl)butan-2-ol] | -8 |  | 67 | 10 | -14 | 13 | 
5 | Cc1ccc2c(c1)c1c(n2CC(C)(C)c2ccncc2)CCN(C)C1 [Compound 1-49, 2,8-dimethyl-5-(2-methyl-2-(pyridin-4-yl)propyl)-2,3,4,5-tetrahydro-1H-pyrido[4,3-b]indole] | 13 |  | 78 |  | 54 |  | 94
6 | Cc1ccc2c(c1)c1c(n2CC(O)c2ccncc2)CCN(C)C1 (stereo not shown) [Compound 1-8, 2-(2,8-dimethyl-3,4-dihydro-1H-pyrido[4,3-b]indol-5(2H)-yl)-1-(pyridin-4-yl)ethanol] | 9 | 86 |  |  |  |  | 
7 | CCCC[C@](O)(Cn1c2c(c3cc(Cl)ccc31)CN(C)CC2)c1ccc(F)cc1 [Compound 1-61, (R)-1-(8-Chloro-2-methyl-3,4-dihydro-1H-pyrido[4,3-b]indol-5(2H)-yl)-2-(4-fluorophenyl)hexan-2-ol] | 1 |  | 81 | -7 | 14 | 14 | 
8 | Cc1ccc2c(c1)c1c(n2CC(C)c2ccncc2)CCN(C)C1 (stereo not shown) [Compound 1-46, 2,8-dimethyl-5-(2-(pyridin-4-yl)propyl)-2,3,4,5-tetrahydro-1H-pyrido[4,3-b]indole] | 12 |  | 71 |  | 37 |  | 90
9 | CCCC[C@@](O)(Cn1c2c(c3cc(Cl)ccc31)CN(C)CC2)c1ccc(F)cc1 [Compound 1-67, (S)-1-(8-chloro-2-methyl-3,4-dihydro-1H-pyrido[4,3-b]indol-5(2H)-yl)-2-(4-fluorophenyl)hexan-2-ol] | 2 |  | 39 | -2 | 20 |  | 
10 | Cc1ccc2c(c1)c1c(n2CCc2ccc(C)nc2)CCN(CC(F)(F)F)C1 [Compound 1-65, 8-methyl-5-(2-(6-methylpyridin-3-yl)ethyl)-2-(2,2,2-trifluoroethyl)-2,3,4,5-tetrahydro-1H-pyrido[4,3-b]indole] | -10 |  | -10 | 11 | 12 | 4 | 
11 | CC[C@@](O)(Cn1c2c(c3cc(C)ccc31)CN(C)CC2)c1ccc(F)cc1 [Compound 1-66, (S)-1-(2,8-dimethyl-3,4-dihydro-1H-pyrido[4,3-b]indol-5(2H)-yl)-2-(4-fluorophenyl)butan-2-ol] | -1 |  | 77 | -12 | 6 |  | 
12 | CC[C@@](O)(Cn1c2c(c3cc(C)ccc31)CN(C)CC2)c1ccncc1 [Compound 1-62, (S)-1-(2,8-Dimethyl-3,4-dihydro-1H-pyrido[4,3-b]indol-5(2H)-yl)-2-(pyridine-4-yl)butan-2-ol] | 10 |  | 43 | 3 | 9 | 6 | 
13 | COc1ccc([C@](C)(O)Cn2c3c(c4cc(C)ccc42)CN(C)CC3)cc1 [Compound 1-20, (S)-1-(2,8-Dimethyl-3,4-dihydro-1H-pyrido[4,3-b]indol-5(2H)-yl)-2-(4-methoxyphenyl)propan-2-ol] | 13 |  | 91 |  |  | 22 | 
14 | Cc1ccc2c(c1)c1c(n2CC(C)(O)c2ccc(O)cc2)CCN(C)C1 (stereo not shown) [Compound 1-15, 4-(1-(2,8-dimethyl-3,4-dihydro-1H-pyrido[4,3-b]indol-5(2H)-yl)-2-hydroxypropan-2-yl)phenol] | 36 | 102 |  |  |  |  | 
